Publication PMC7924852, “The Emericellipsins A–E from an Alkalophilic Fungus Emericellopsis alkalina Show Potent Activity against Multidrug-Resistant Pathogenic Fungi” (Journal of Fungi, 2021)
In brackets after ≈: the same amount, converted by molar mass. Read-outs that look alike come from different tables or passages of the source. Starred links: 1 amine or outer side, 2 acyl side, 3 side chain; linkers in the order of their positions; H or OH if unused. Positions of bridges follow the written chain, without caps; N, C: chain ends. Non-standard residues stand in square brackets, D forms with d. Residues, ends and D or L forms follow the SMILES beside them. *: point of attachment. pTerphenylCO(4''-OnC5H11) = CCCCCOc1ccc(-c2ccc(-c3ccc(C(=O)*)cc3)cc2)cc1; Orn(4R-OH,5R-OH) = O=C([C@H](C[C@@H](O)[C@@H](O)N[*:3])N[*:1])[*:2]; hTyr(3S-OH,4S-OH) = N[C@H](C(=O)O)[C@H](O)[C@@H](O)c1ccc(O)cc1; Pro(3S-OH,4S-Me) = C[C@H]1CN[C@H](C(=O)O)[C@H]1O; Hyp = O=C(O)[C@@H]1C[C@@H](O)CN1

Key:
[1] = test system: Aspergillus niger 1133m; assay: Sensititre YeastOne antifungal susceptibility test; format: cell-based
[2] = test system: A. fumigatus 390m; assay: Sensititre YeastOne antifungal susceptibility test; format: cell-based; settings: Aspergillus fumigatus
[3] = test system: A. terreus 497; assay: Sensititre YeastOne antifungal susceptibility test; format: cell-based; settings: Aspergillus terreus
[4] = test system: Candida albicans 1402; assay: Sensititre YeastOne antifungal susceptibility test; format: cell-based
[5] = test system: C. glabrata 1402; assay: Sensititre YeastOne antifungal susceptibility test; format: cell-based; settings: Nakaseomyces glabratus
[6] = test system: C. krusei 1447; assay: Sensititre YeastOne antifungal susceptibility test; format: cell-based; settings: Pichia kudriavzevii
[7] = test system: C. tropicalis 156; assay: Sensititre YeastOne antifungal susceptibility test; format: cell-based; settings: Candida tropicalis
[8] = test system: C. parapsilosis 571; assay: Sensititre YeastOne antifungal susceptibility test; format: cell-based; settings: Lodderomyces parapsilosis
[9] = test system: Cryptococcus neoformans 297; assay: Sensititre YeastOne antifungal susceptibility test; format: cell-based
[10] = test system: Cr. laurentii 325m; assay: Sensititre YeastOne antifungal susceptibility test; format: cell-based; settings: Papiliotrema laurentii
[11] = test system: Candida albicans 1402; assay: Broth microdilution MIC and MFC (CLSI); format: cell-based
[12] = test system: C. glabrata 1402; assay: Broth microdilution MIC and MFC (CLSI); format: cell-based; settings: Nakaseomyces glabratus
[13] = test system: C. krusei 1447; assay: Broth microdilution MIC and MFC (CLSI); format: cell-based; settings: Pichia kudriavzevii
[14] = test system: C. tropicalis 156; assay: Broth microdilution MIC and MFC (CLSI); format: cell-based; settings: Candida tropicalis
[15] = test system: C. parapsilosis 571; assay: Broth microdilution MIC and MFC (CLSI); format: cell-based; settings: Lodderomyces parapsilosis
[16] = test system: Cryptococcus neoformans 297; assay: Broth microdilution MIC and MFC (CLSI); format: cell-based; settings: Cryptococcus neoformans 297 clinical isolate; RPMI 1640 pH 7.0, 35 °C, 24 h; read-out: MIC
[17] = test system: C. laurentii 325m; assay: Broth microdilution MIC and MFC (CLSI); format: cell-based, Cr. laurentii; settings: Papiliotrema laurentii; C. laurentii 325m clinical isolate; RPMI 1640 pH 7.0, 35 °C, 24 h; read-out: MIC
[18] = Sensititre YeastOne, Aspergillus niger 1133m clinical isolate, read-out: MIC
[19] = Sensititre YeastOne, A. fumigatus 390m clinical isolate, read-out: MIC
[20] = Sensititre YeastOne, A. terreus 497 clinical isolate, read-out: MIC
[21] = Sensititre YeastOne, Candida albicans 1402 clinical isolate, read-out: MIC
[22] = Sensititre YeastOne, C. glabrata 1402 clinical isolate, read-out: MIC
[23] = Sensititre YeastOne, C. krusei 1447 clinical isolate, read-out: MIC
[24] = Sensititre YeastOne, C. tropicalis 156 clinical isolate, read-out: MIC
[25] = Sensititre YeastOne, C. parapsilosis 571 clinical isolate, read-out: MIC
[26] = Sensititre YeastOne, Cryptococcus neoformans 297 clinical isolate, read-out: MIC
[27] = Sensititre YeastOne, Cr. laurentii 325m clinical isolate, read-out: MIC

SMILES	MIC [1, 18] [µg/mL]	MIC [2, 19] [µg/mL]	MIC [3, 20] [µg/mL]	MIC [4, 21] [µg/mL]	MIC [5, 22] [µg/mL]	MIC [6, 23] [µg/mL]	MIC [7, 24] [µg/mL]	MIC [8, 25] [µg/mL]	MIC [9, 26] [µg/mL]	MIC [10, 27] [µg/mL]	MIC ([1]; Aspergillus niger, 1133M) [µg/mL]	MIC ([2]; 390M) [µg/mL]	MIC [3]; 497 [µg/mL]	MIC ([4]; Candida albicans, 1402) [µg/mL]	MIC [5]; 1402 [µg/mL]	MIC [6]; 1447 [µg/mL]	MIC [7]; 156 [µg/mL]	MIC [8]; 571 [µg/mL]	MIC ([9]; Cryptococcus neoformans, 297) [µg/mL]	MIC ([10]; 325M) [µg/mL]	other results
CCC(C)n1ncn(-c2ccc(N3CCN(c4ccc(OCC5COC(Cn6cncn6)(c6ccc(Cl)cc6Cl)O5)cc4)CC3)cc2)c1=O (stereo not shown) [IZ, itraconazole]	1 (≈ 1.42 µM)	0.25 (≈ 0.354 µM)	0.25 (≈ 0.354 µM)	0.5 (≈ 0.709 µM)	> 16	0.5 (≈ 0.709 µM)	> 16	0.5 (≈ 0.709 µM)	0.5 (≈ 0.709 µM)	0.12 (≈ 0.17 µM)	–	–	–	–	–	–	–	–	–	–	–
CCCCCOc1ccc(-c2ccc(-c3ccc(C(=O)N[C@H]4C[C@@H](O)[C@@H](O)NC(=O)[C@@H]5[C@@H](O)[C@@H](C)CN5C(=O)[C@H]([C@@H](C)O)NC(=O)[C@H]([C@H](O)[C@@H](O)c5ccc(O)cc5)NC(=O)[C@@H]5C[C@@H](O)CN5C(=O)[C@H]([C@@H](C)O)NC4=O)cc3)cc2)cc1 [AND, anidulafungin] ({pTerphenylCO(4''-OnC5H11)}-[Orn(4R-OH,5R-OH)]T[Hyp][hTyr(3S-OH,4S-OH)]T[Pro(3S-OH,4S-Me)]; lactam 1-C)	–	–	–	–	–	–	–	–	–	–	> 8	> 8	> 8	0.06 (≈ 0.0526 µM)	0.06 (≈ 0.0526 µM)	0.03 (≈ 0.0263 µM)	0.12 (≈ 0.105 µM)	2 (≈ 1.75 µM)	> 8	> 8	–
CC[C@H](C)C[C@H](C)CCCCCCCCC(=O)N[C@H]1C[C@@H](O)[C@@H](NCCN)NC(=O)[C@@H]2[C@@H](O)CCN2C(=O)[C@H]([C@H](O)CCN)NC(=O)[C@H]([C@H](O)[C@@H](O)c2ccc(O)cc2)NC(=O)[C@@H]2C[C@@H](O)CN2C(=O)[C@H]([C@@H](C)O)NC1=O [CAS, Caspofungin]	–	–	–	–	–	–	–	–	–	–	> 16	> 16	> 16	0.06 (≈ 0.0549 µM)	0.06 (≈ 0.0549 µM)	0.25 (≈ 0.229 µM)	0.06 (≈ 0.0549 µM)	1 (≈ 0.915 µM)	16 (≈ 14.6 µM)	16 (≈ 14.6 µM)	MFC ([11]; Candida albicans 1402, lowest concentration causing 95% death, plated on PDA agar, read-out: MFC): 0.5 µg/mL (≈ 0.457 µM); MIC ([11]; Candida albicans 1402 clinical isolate, RPMI 1640 pH 7.0, 35 °C, 24 h, read-out: MIC): 0.06 µg/mL (≈ 0.0549 µM); MFC ([12]; C. glabrata 1402, lowest concentration causing 95% death, read-out: MFC): 0.5 µg/mL (≈ 0.457 µM); MIC ([12]; C. glabrata 1402 clinical isolate, RPMI 1640 pH 7.0, 35 °C, 24 h, read-out: MIC): 0.06 µg/mL (≈ 0.0549 µM); MFC ([13]; C. krusei 1447, lowest concentration causing 95% death, read-out: MFC): 1 µg/mL (≈ 0.915 µM); MIC ([13]; C. krusei 1447 clinical isolate, RPMI 1640 pH 7.0, 35 °C, 24 h, read-out: MIC): 0.25 µg/mL (≈ 0.229 µM); MFC ([14]; C. tropicalis 156, lowest concentration causing 95% death, read-out: MFC): 0.5 µg/mL (≈ 0.457 µM); MIC ([14]; C. tropicalis 156 clinical isolate, RPMI 1640 pH 7.0, 35 °C, 24 h, read-out: MIC): 0.06 µg/mL (≈ 0.0549 µM); MFC ([15]; C. parapsilosis 571, lowest concentration causing 95% death, read-out: MFC): 1 µg/mL (≈ 0.915 µM); MIC ([15]; C. parapsilosis 571 clinical isolate, RPMI 1640 pH 7.0, 35 °C, 24 h, read-out: MIC): 1 µg/mL (≈ 0.915 µM); MIC [16]: > 64 µg/mL; MIC [17]: 16 µg/mL (≈ 14.6 µM)
C[C@@H](c1ncncc1F)[C@](O)(Cn1cncn1)c1ccc(F)cc1F [VOR, voriconazole]	8 (≈ 22.9 µM)	0.5 (≈ 1.43 µM)	0.25 (≈ 0.716 µM)	1 (≈ 2.86 µM)	8 (≈ 22.9 µM)	1 (≈ 2.86 µM)	4 (≈ 11.5 µM)	1 (≈ 2.86 µM)	0.25 (≈ 0.716 µM)	0.5 (≈ 1.43 µM)	–	–	–	–	–	–	–	–	–	–	–
